According to ChEMBL document CHEMBL4715930, “Reactivation of the Guardian of the Genome P53: A Promising Strategy for Treatment of Cancer” (ACS Med Chem Lett, 2021):

These compounds were tested against Tumour suppressor p53/oncoprotein Mdm2 (Homo sapiens, UniProt Q00987) (assay: Inhibition of GST-tagged MDM2 (23 to 117 residues) (unknown origin) assessed as inhibition of MDM2/biotinylated wild type human p53 (16 to 27 residues) interaction by measuring reactivation of p53 incubated for 15 mins by AlphaScreen assay).
Chain of Tumour suppressor p53/oncoprotein Mdm2 (P04637 whole entry, the tested form may be a part): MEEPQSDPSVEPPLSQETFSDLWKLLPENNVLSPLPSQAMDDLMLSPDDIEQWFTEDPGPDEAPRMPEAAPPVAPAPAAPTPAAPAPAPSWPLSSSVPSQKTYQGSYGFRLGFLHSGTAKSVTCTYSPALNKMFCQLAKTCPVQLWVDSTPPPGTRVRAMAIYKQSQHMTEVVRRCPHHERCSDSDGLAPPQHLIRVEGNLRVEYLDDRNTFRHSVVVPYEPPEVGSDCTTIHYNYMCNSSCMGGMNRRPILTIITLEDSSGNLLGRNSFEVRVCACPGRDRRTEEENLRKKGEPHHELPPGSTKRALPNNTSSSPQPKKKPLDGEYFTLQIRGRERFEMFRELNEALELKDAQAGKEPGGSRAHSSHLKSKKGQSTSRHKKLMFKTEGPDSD
Chain of Tumour suppressor p53/oncoprotein Mdm2 (Q00987 whole entry, the tested form may be a part): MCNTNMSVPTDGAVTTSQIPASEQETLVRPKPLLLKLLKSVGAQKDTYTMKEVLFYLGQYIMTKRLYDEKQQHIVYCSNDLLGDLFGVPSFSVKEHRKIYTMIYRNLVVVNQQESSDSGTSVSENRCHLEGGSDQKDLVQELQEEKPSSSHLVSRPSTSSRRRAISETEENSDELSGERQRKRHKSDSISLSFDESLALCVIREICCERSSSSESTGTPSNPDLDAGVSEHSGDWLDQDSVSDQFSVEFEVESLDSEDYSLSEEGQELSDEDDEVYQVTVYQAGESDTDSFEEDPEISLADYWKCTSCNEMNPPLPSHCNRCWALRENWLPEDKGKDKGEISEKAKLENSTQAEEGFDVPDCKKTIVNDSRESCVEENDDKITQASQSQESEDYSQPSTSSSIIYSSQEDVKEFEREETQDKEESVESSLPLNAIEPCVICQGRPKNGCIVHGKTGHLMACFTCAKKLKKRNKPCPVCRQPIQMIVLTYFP
Assay type: protein assay

| SMILES | IC50 |
| --- | --- |
| CCOc1cccc(CN2[C@H]3Cc4c5cc(C)c(C(=O)NC)cc5nn4[C@H]3[C@H](c3cccc(Cl)c3F)[C@]23C(=O)Nc2nc(Cl)ccc23)c1 | 5 nM |
| O=C(O)c1ccc2c(c1)nc1n2CC[C@@H]2[C@H]1[C@H](c1cccc(Cl)c1F)[C@]1(C(=O)Nc3cc(Cl)ccc31)N2CC1CC1 | 79 nM |
| Cc1c(C(=O)N2CCCCC2)ccn2c3c(nc12)[C@@H]1[C@H](CC3)N(CC2CC2)[C@@]2(C(=O)Nc3cc(Cl)ccc32)[C@H]1c1ccnc(Cl)c1F | 10 nM |
